Measured values published in PMC8708704, “Discovery of New Chemical Tools against Leishmania amazonensis via the MMV Pathogen Box” (Pharmaceuticals, 2021).
Like-named read-outs stand apart in the source and are kept apart here.

Tests used:
[1] = test system: Leishmania amazonensis promastigotes; assay: Leishmanicidal activity against promastigotes (alamarBlue assay; screening at 10 µM and IC50); assay type: cell-based; conditions: for IC50 / inhibition at 10 µM: 72 h; for IC50: read-out: Leishmania amazonensis Promastigotes IC50; for inhibition at 10 µM: first screening, read-out: % of inhibition at 10 µM (against L. amazonensis promastigotes); for Selectivity Index (CC50/IC50), promastigotes: macrophage CC50 / promastigote IC50
Protocol: For the experiments, promastigotes of Leishmania amazonensis strain (MHOM/BR/77/LTB0016) were used; they were maintained in RPMI 1640 medium (Gibco, Massachusetts, USA) at 26 °C. […] Subsequently, the plates were analyzed on an EnSpire multimode plate reader (PerkinElmer, MA, USA) to measure their fluorescence after 72 h. […] To this end, serial dilutions were performed in 96 well plates, and incubated with the parasites for 72 h after adding alamarBlue®. Next, the plates were analyzed on the EnSpire plate reader and the IC50 values were calculated by using SigmaPlot 14.0 (Systat Software Inc., Chicago, IL, USA). Each concentration was tested in duplicate and in three independent experiments for all the compounds.

[2] = test system: Leishmania amazonensis intracellular amastigote; assay: Intracellular amastigote activity (parasite rescue and transformation assay); assay type: cell-based; conditions: for IC50: Leishmania amazonensis, Macrophage, read-out: Leishmania amazonensis Intracellular Amastigote IC50; for Selectivity Index (CC50/IC50), intracellular amastigote: macrophage CC50 / amastigote IC50
Protocol: The intracellular amastigote activity was measured by parasite rescue and transformation assay, also performed according to Jain et al. […] The macrophages were placed in a 96 well plate at a density of 2 × 10^5/mL in DMEM and incubated for 5 h. […] After the incubation, the excess promastigotes were washed off and serial dilutions of the compounds were added. After 24 h of incubation, we removed the medium and added 30 μL of Schneider medium with 0.05% SDS to break the macrophages. The plate was shaken for 30 s and a further 180 μL of medium was added to each well. The plates were then incubated at 26 °C for 72 h for the transformation of the rescued amastigote into promastigotes. AlamarBlue® was added and the plates were measured and analyzed as discussed above.

[3] = test system: Leishmania amazonensis promastigotes; assay: ATP levels (CellTiter-Glo); assay type: cell-based; conditions: IC90 of the compounds, 24 h
Protocol: To detect alterations due to the different treatments on the cellular ATP levels, CellTiter-Glo (Promega) was utilized. […] Finally, luminescence was measured on the EnSpire spectrophotometer (Perkin Elmer). The experiment was performed at least three times in duplicate on different days.

[4] = test system: L. amazonensis promastigotes; assay: Reactive oxygen species detection (CellROX Deep Red); assay type: cell-based, Leishmania amazonensis; conditions: IC90 of the compounds, 24 h
Protocol: After 30 min in darkness, the cells were observed under a fluorescent inverted microscope EVOS FL (Life Technologies, Thermo Fisher Scientific, Waltham, MA, USA). This staining was performed three times in independent tests. A positive control was performed as the internal control and corresponded to cells in which ROS production was achieved through the incubation of parasites with 600 µM hydrogen peroxide 30 min before detection.

[5] = test system: L. amazonensis promastigotes; assay: Phosphatidylserine externalization (annexin V / propidium iodide, Tali); assay type: cell-based, Leishmania amazonensis; conditions: IC90, 24 h (Figure 4 legend: 48 h)
Description: To measure the level of population that experiments phosphatidylserine externalization from the inner to the outer part of the cytoplasmic membrane, an Apoptosis kit for Tali (Invitrogen, Thermo Fisher Scientific, Waltham, MA, USA) was utilized. The kit employs annexin-v, which binds to the external phosphatidylserine, and propidium iodide, that penetrates dead cells, to classify the population of the cells as: alive ([…]), dead (propidium stained), and apoptotic (annexin stained). […] A minimum of three independent experiments were performed for this assay. The cells were then quantified by the image-based cytometer Tali® (Life Technologies, Thermo Fisher Scientific, Waltham, MA, USA).

[6] = test system: CYP2C9; set-up: method as in mmv.org; conditions: human cytochrome; ref mmv.org; cited from earlier work
[7] = test system: CYP2D6; set-up: method as in mmv.org; conditions: human cytochrome; ref mmv.org; cited from earlier work
[8] = set-up: method as in mmv.org; conditions: ref mmv.org; cited from earlier work
[9] = test system: intracellular amastigotes of L. donovani; conditions: cited from earlier work
[10] = test system: Trypanosoma brucei brucei trypomastigotes; set-up: method as in PMID 28674055, PMID 19091562; conditions: cited from earlier work
[11] = Cytotoxic activity against murine macrophages (alamarBlue); conditions: mouse
[12] = test system: T. cruzi intracellular amastigotes; set-up: method as in PMID 19091562; conditions: cited from earlier work
[13] = test system: Plasmodium falciparum; set-up: method as in PMID 19091562; conditions: cited from earlier work
[14] = test system: methionine aminopeptidase; set-up: method as in PMID 28674055; conditions: cited from earlier work
[15] = test system: promastigotes; conditions: read-out: IC50 against promastigotes, cited from earlier work
[16] = test system: intracellular amastigotes; conditions: read-out: IC50 against intracellular amastigotes, cited from earlier work
[17] = test system: L. donovani promastigotes; set-up: method as in PMID 32280200; conditions: cited from earlier work
[18] = test system: T. evansi trypomastigotes; set-up: method as in PMID 32112721; conditions: cited from earlier work
[19] = test system: NADPH oxidase 4; set-up: method as in PMID 20731357; conditions: cited from earlier work
[20] = test system: thioredoxin reductase; set-up: method as in PMID 18532880; conditions: cited from earlier work
[21] = Leishmania amazonensis, alamarBlue
[22] = 24 h treatment of infected macrophages, rescue 72 h

Compound	IC50 [1, 21] [µM]	inhibition at 10 µM ([1]; Leishmania amazonensis) [%]	Selectivity Index (CC50/IC50), promastigotes [1]	IC50 [2, 22] [µM]	Selectivity Index (CC50/IC50), intracellular amastigote [2]	ROS accumulation (CellROX Deep Red fluorescence) [4]	IC50 [6] [µM]	IC50 [7] [µM]	Glutathione Reactivity [8]	Activity against Trypanosoma brucei brucei trypomastigotes [10]	CC50 at 24 h ([11]; J774A.1 murine macrophages) [µM]	IC50 ([1]; alamarBlue) [µM]	further results
C[C@H](c1ccc2c(c1)CCCC2)N(C)c1ncc2c(N)nc(N)nc2n1 [Compound 5, 2-N-Methyl-2-N-[(1R)-1-(5,6,7,8-tetrahydronaphthalen-2-yl)ethyl]pyrimido [4,5-d]pyrimidine-2,5,7-triamine]	0.59 ± 0.08	90	>17.06	1.25 ± 0.28	>8.00	too damaged to contain the dye	> 20	> 20	Medium	activity	> 10	–	ATP levels [3]: strong decrease; Dead population (propidium iodide stained) [5]: higher percentage; Translocation of phosphatidylserine, part of the parasite population [5]: higher than 50%; Anti-leishmanial activity (L. donovani) ([9]; stage not clearly stated for this compound): activity
c1ccc(-c2nc(NC3CCCCC3)cc(C3CC3)n2)nc1 [Compound 10, N-Cyclohexyl-6-cyclopropyl-2-pyridin-2-ylpyrimidin-4-amine]	< 2	90	>5.40	1.33 ± 0.36	>7.52	accumulation of ROS	> 20	> 20	No GSH adduct	activity	> 10	1.85 ± 0.39	ATP levels [3]: less pronounced decrease; Activity against intracellular amastigotes of L. donovani [9]: activity; Activity against T. cruzi intracellular amastigotes [12]: active; Activity against Plasmodium falciparum [13]: active; Inhibition of methionine aminopeptidase [14]: inhibitor
Cn1c(=O)c2c(S(C)(=O)=O)snc2n(C)c1=O [Compound 4]	< 2	–	2.94	> 10	–	–	–	–	–	–	4.3 ± 0.16	1.44 ± 0.24	–
COc1nc2ccc(Br)cc2cc1[C@@H](c1ccccc1)[C@@](O)(CCN(C)C)c1cccc2ccccc12 [Compound 1, Bedaquiline, reference compound]	–	–	>1.56	–	–	–	–	–	–	–	–	–	IC50 ([1]; Leishmania amazonensis): 6.43 ± 1.06 µM; IC50 [2]: > 10 µM; CC50 at 24 h [11]: > 10 µM
CCCCCCCCCCCCCCCCOP(=O)([O-])OCC[N+](C)(C)C [Miltefosine]	–	–	11.14	–	23.14	–	–	–	–	–	72.2 ± 3.06	–	IC50 ([15]; ref Alonso et al. [15]): 7.8 µM; IC50 ([15]; ref Trinconi et al. [16]): 16.8 µM; IC50 ([16]; ref Alonso et al. [15]): 1.8 µM; IC50 ([16]; ref Trinconi et al. [16]): 2.6 µM
O=C(Nc1ccc(N2CCNCC2)cc1)c1ccn2ncc(-c3cccc(Cl)c3)c2n1 [Compound 9, 3-(3-Chlorophenyl)-N-(4-piperazin-1-ylphenyl)pyrazolo [1,5-a]pyrimidine-5-carboxamide]	0.77 ± 0.01	91	9.35	6.9 ± 1.79	1.05	accumulation of ROS	> 20	> 20	No GSH adduct	activity	7.22 ± 2.36	–	Activity against L. donovani promastigotes [17]: activity; Activity against T. evansi trypomastigotes [18]: active; Inhibition of NADPH oxidase 4 [19]: inhibits
CCCn1c(NC(=O)c2ccc3ccccc3n2)nc2ccccc21 [Compound 6]	3.93 ± 0.64	–	>2.54	8.52 ± 0.67	>1.17	–	–	–	medium	–	> 10	–	–
N#Cc1nc(-c2ccccc2)oc1S(=O)(=O)c1ccc(Cl)cc1 [Compound 2]	4.03 ± 0.73	–	>2.48	> 10	–	–	–	–	–	–	> 10	–	–
COc1cccc(-n2nnnc2S(=O)(=O)Cc2ccccc2)c1 [Compound 3, 5-(Benzylsulfonyl)-1-(3-methoxyphenyl)-1H-tetrazole]	< 2	91	–	4.78 ± 1.2	1.68	–	> 20	15	Medium	–	8.02 ± 0.93	1.33 ± 0.12	ATP levels [3]: strong decrease; Dead population (propidium iodide stained) [5]: higher percentage; Translocation of phosphatidylserine, part of the parasite population [5]: higher than 50%; Interference with thioredoxin reductase [20]: interferes
CN1CCC(NCc2cccc(-c3ccc(S(=O)(=O)NCc4ccccc4)cc3)c2)CC1 [Compound 7, N-Benzyl-4-[3-[[(1-methylpiperidin-4-yl)amino]methyl]phenyl]benzenesulfonamide]	< 2	91	>5.44	2.5 ± 0.27	>4.00	accumulation of ROS	> 20	> 20	No GSH adduct	activity	> 10	1.84 ± 0.14	–
CN1CCN(CCCOc2ncc(Nc3ncc(-c4ccc(C(F)(F)F)c(F)c4)nc3C(N)=O)cn2)CC1 [Compound 8]	2.62 ± 0.4	–	3.06	6.85 ± 0.75	1.17	–	–	–	–	–	8.01 ± 1.13	–	–
